# Experimental data reported in patent US20220175974A1, “TARGETING COMPOUNDS FOR CANCERS SELECTED FROM ESOPHAGUS, PHARYNX AND LARYNX, LUNG, BRAIN, AND INTESTINES” (HQ MEDICAL NETHERLANDS B.V., priority 2019, published 2022).
# Tests used:
# [1] = clearance of the cyanines in the human body; format: in vivo
# Excerpt: (§1) The present targeting molecule is very selective and very specific in binding to necrotic cells. […] For the present invention four specific cyanines are selected, namely HQ4, HQ5, CW-800 and ZW-800. These molecules are found to have a high affinity towards the intracellular proteins, including tubulin and actin. […] As a result very low concentrations c.q. amounts of the present system may be used to provide advantageous effects thereof. It is noted that apoptosis specific probes, in contrast to necrosis specific probes will also target healthy tissue as apoptosis is involved in normal tissue turnover. The present cyanine is attached to a second entity, namely a chelator, wherein the chelator is selected from DOTA and NOTA (DOTA: 1,4,7,10-Tetraazacyclododecane-1,4,7,10-tetraacetic acid and NOTA: 1,4,7-triazacyclononane-N,N′,N″-triacetic acid). Attached to the chelator is attached a third entity, namely a radionuclide selected from Cu, In, Gd, Ga, Lu, Y, I, and Zr. The present system is found to be effective as a medicament, also referred to as drug, for cancers selected from esophagus, pharynx and larynx, lung, brain, and intestines. These cancers are considered to relate to and being associated with the Central Nervous system, the respiratory tract, the gastro-intestinal tract, […], and head-neck region, respectively. […]
# [2] = test system: intracellular proteins, including tubulin and actin; test: binding of cyanine targeting molecules to intracellular proteins
# Excerpt: as §1
smiles,measurement,setting,value
CC1(C)C(/C=C/C2=C(Oc3ccc(S(=O)(=O)O)cc3)C(=C/C=C3/N(CCCCS(=O)(=O)O)c4ccc(S(=O)(=O)[O-])cc4C3(C)C)/CCC2)=[N+](CCCCCC(=O)O)c2ccc(S(=O)(=O)O)cc21 [CW-800],clearance in the human body,[1],cleared in the human body specifically well
same,affinity towards the intracellular proteins,[2],high affinity
